From article PMC9176816, “A rapid and sensitive assay for quantifying the activity of both aerobic and anaerobic ribonucleotide reductases acting upon any or all substrates” (PLoS ONE, 2022)

Tests used:
[1] = biological target: T1, E. coli class Ia RNR (EcRNR; NrdA/NrdB) (Escherichia coli, UniProt P00452); experiment: LC-MS/MS of dCDP, dUDP, dADP, dGDP formation; assay type: biochemical; settings: four substrates (CDP 70, UDP 50, GDP 200, ADP 110 μM), 3 mM ATP, 20 μM dATP, remaining activity, specificity effector, pH 7.6, 37 °C
T1 construct: both subunits N-terminally His-tagged (tags kept), codon-optimized pET30(a), E. coli T7 Express; NrdA 85774 Da, NrdB 44528 Da; alpha2 and beta2 dimers; with Ribonucleoside-diphosphate reductase 1 subunit beta
T1 sequence (P00452 1-761): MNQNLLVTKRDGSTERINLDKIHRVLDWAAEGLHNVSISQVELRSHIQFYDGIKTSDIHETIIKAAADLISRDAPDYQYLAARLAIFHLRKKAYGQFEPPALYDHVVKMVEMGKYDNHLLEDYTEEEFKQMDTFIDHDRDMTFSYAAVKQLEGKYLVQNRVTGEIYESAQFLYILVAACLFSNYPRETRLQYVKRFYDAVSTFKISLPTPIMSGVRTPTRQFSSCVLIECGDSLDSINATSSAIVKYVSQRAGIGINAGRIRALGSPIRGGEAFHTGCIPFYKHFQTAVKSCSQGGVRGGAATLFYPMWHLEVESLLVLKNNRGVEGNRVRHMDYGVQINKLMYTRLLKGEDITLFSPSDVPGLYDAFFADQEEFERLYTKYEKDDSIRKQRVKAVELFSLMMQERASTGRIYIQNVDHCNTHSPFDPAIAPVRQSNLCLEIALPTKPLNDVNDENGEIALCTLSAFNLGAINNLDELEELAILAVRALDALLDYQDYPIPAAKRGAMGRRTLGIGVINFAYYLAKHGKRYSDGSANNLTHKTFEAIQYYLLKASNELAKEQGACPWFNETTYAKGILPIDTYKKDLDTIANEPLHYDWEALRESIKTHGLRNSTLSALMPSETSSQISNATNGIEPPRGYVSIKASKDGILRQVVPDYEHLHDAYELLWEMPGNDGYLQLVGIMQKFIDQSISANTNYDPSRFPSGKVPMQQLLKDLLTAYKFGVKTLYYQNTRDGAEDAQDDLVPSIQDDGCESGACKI
T1 sequence (P69924 2-376 partner): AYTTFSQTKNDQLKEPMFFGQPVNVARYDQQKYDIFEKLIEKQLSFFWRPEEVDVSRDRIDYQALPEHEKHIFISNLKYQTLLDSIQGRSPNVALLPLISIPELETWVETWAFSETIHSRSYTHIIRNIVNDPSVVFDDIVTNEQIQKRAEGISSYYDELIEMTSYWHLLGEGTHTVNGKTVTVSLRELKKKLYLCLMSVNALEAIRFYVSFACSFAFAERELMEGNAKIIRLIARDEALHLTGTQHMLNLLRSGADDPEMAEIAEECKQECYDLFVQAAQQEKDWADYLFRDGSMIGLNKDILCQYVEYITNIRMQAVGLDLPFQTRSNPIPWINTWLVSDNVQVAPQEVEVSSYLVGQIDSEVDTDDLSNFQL

[2] = biological target: T1, E. coli class Ia RNR (EcRNR; NrdA/NrdB); experiment: LC-MS/MS of dCDP formation; assay type: biochemical; settings: relative to 3 mM ATP; 1 mM CDP, dATP printed as 0.175 μM and 175 μM, NrdA 0.1 μM, NrdB 0.5 μM, Trx/TrxR/NADPH, Mg, pH 7.6, 37 °C; allosteric inhibitor

For `Nc1nc2c(ncn2[C@H]2C[C@H](O)[C@@H](COP(=O)(O)OP(=O)(O)OP(=O)(O)O)O2)c(=O)[nH]1` [dGTP], the “% of initial activity at 1 mM” value ([1]; 250 μM TTP present) was 50%.
In the case of `Cc1cn([C@H]2C[C@H](O)[C@@H](COP(=O)(O)OP(=O)(O)OP(=O)(O)O)O2)c(=O)[nH]c1=O` [TTP], the “% of initial activity at 1 mM” value ([1]; 100 μM dGTP present) is reported as 27%.
`Nc1ncnc2c1ncn2[C@H]1C[C@H](O)[C@@H](COP(=O)(O)OP(=O)(O)OP(=O)(O)O)O1` [dATP] was tested, and the “% inactivation” value [2] was 99%.
